“Also recorded” adds a separate entry of the source.
Experiments:
B16F1 melanoma cells [1] = assay: Established B16F1 melanoma, PTXF with or without checkpoint-blockade mAb; format: in vivo, C57Bl/6 WT mice; conditions: for tumor size / tumor growth (growth curves): PTXF 50 mg/kg and/or anti-PD-1 mAb from D5-D6, vs control
Description: Pentoxifylline (Sigma) powder was dissolved in PBS1X and sterile filtered prior to each injection. For the early regimen of pentoxifylline treatment, mice were injected intra-peritoneally with 50 mg/kg pentoxifylline diluted in 100 μL PBS1X at days 0, 1, 2, 3, 5, 7, and 9. For the “curative” regimen, mice were treated daily from day 5-6 (when the tumor was visible and palpable) to day 11, following the same methods. IT-603 was reconstituted in DMSO and stored at −80° C. It then was diluted in PBS1X and sterile-filtered prior to each injection. Mice were injected intra-peritoneally with 10 mg/kg […] diluted in 100 μL PBS1X at days 0, 1, 2, 3, 5, 7 and 9.
Anti-PD-1 antibody (clone RMP1-14, BioXCell®) or isotype control (polyclonal IgG, BioXCell®) is available commercially. The antibodies were aliquoted in sterile PBS1X and stored at −80° C. until use. Mice are injected intra-peritoneally with […] of anti-PD-1 or isotype antibody, diluted in 100 μL sterile PBS1X at days 6, 8 and 10. All injections are performed using a 27.5 gauge needle, following the standard precautions.
(§1) 5×10^4 B16F1 or 5×10^5 CT-26 or BRAF^CAPten^−/− cells diluted in sterile PBS1X were injected subcutaneously into the shaved flank of each mouse. For metastasis experiments, 2.5×10^4 B16F10 cells were injected intravenously in the tail vein. […] Anti-PD-1 (RMP1-14), anti-PD-L1 (10F.9G2) and anti-CD8 (YTS.169-4) mAbs were obtained from BioXCell. Rat IgG isotype control was from R&D Systems. […] In FIG. 11A-11G, Balb/c mice harboring CT-26 tumors received a suboptimal dose of 100 μg of anti-PD-1.
Tumor growth was monitored daily.

B16F1 melanoma cells [2] = assay: qPCR on total tumor RNA at D16, early PTXF treatment; format: in vivo, C57Bl/6J mice
Description: Total RNA was extracted using a Qiagen Rneasy Mini Kit with DNase treatment. For qPCR, RNA was reverse transcribed by Superscript III (Invitrogen). cDNAs were used for PCR with SYBR Green reagents (Quanta Biosciences, Gaithersburg, Md.) on a C1000 Touch thermal cycler (Bio Rad, Hercules, Calif.). The data was normalized to GAPDH expression.

B16F1 melanoma cells [3] = assay: B16F1 melanoma growth, early treatment with PTXF or IT-603; format: in vivo, C57Bl/6 WT mice
Description: B16F1, B16F10 and CT-26 cells were obtained from the ATCC and grown in DMEM+10% FBS medium. BRAF^CAPten^−/− cells were originally derived from an in vivo melanoma induced by topical tamoxifen treatment of Ubc^cre-ERT2 BRAF^CA Pten^F/F, as described. All cell lines were periodically tested for murine pathogens. Cells were grown in DMEM supplemented with 10% FBS. When confluence reached 60-70%, cells were detached and washed in PBS1X. Fifty thousand cells diluted in 50 μL PBS1X were injected subcutaneously in the shaved abdomen of each mouse. Tumor growth was measured daily using a caliper.
Pentoxifylline (Sigma) powder was dissolved in PBS1X and sterile filtered prior to each injection. […] For the “curative” regimen, mice were treated daily from day 5-6 (when the tumor was visible and palpable) to day 11, following the same methods. IT-603 was reconstituted in DMSO and stored at −80° C. It then was diluted in PBS1X and sterile-filtered prior to each injection. […]
as §1
C57BI/6 WT mice were injected subcutaneously with 5×10^4 B16F1 melanoma cells, and then injected with either PBS (control), pentoxifylline, or IT-603 (red arrows). Tumor growth was monitored daily.

p65 = assay: Western blot on PTXF-treated Treg cells; format: cell-based, mice; conditions: Treg cells stimulated with anti-CD3/CD28 and mIL-2, 500 μg/mL PTXF
Description: Total cells suspensions were then activated with 5 μg/mL plate-coated anti-mCD3, 1 μg/ml soluble anti-mCD28 (BioLegend) and 10 ng/mL mIL-2, overnight at 37 C. Treg cells were then washed for further use. Total lysates were extracted using RIPA buffer and protease inhibitors with SDS. 20 μg (micrograms) protein extracts were ran in polyacrylamide gels and transferred onto PVDF membranes. Membranes were incubated with anti-p65, c-Rel (Santa-Cruz) and GAPDH (Fitzgerald) Abs, followed HRP-coupled secondary Abs.

Treg cells = assay: In vivo suppression (colitis) assay with PTXF-treated Treg cells; set-up: species or system RAG1−/− mice; conditions: Treg transferred with naïve Tconv cells
Description: Total cells suspensions were then activated with 5 μg/mL plate-coated anti-mCD3, 1 μg/ml soluble anti-mCD28 (BioLegend) and 10 ng/mL mIL-2, overnight at 37 C. Treg cells were then washed for further use. For in vitro assays, CD45.1^+ naïve conventional CD4+ T cells were magnetically isolated (Miltenyi) and labelled with CellTrace Violet Proliferation Tracker (Life Technologies). They were cultured with T-cell depleted, mitomycin C-treated WT splenocytes and 2.5 μg/mL anti-mCD3, in the presence or not of treated Treg cells as described above. Proliferation of CD45.1^+ T cells was assessed by FACS at D4. The % of suppression was calculated as described. For in vivo assays, 4.10^5 naïve Tconv cells were isolated as above and transferred with or without 1.10^5 Treg cells, to the retro-orbital sinus of 6-9 week-old RAG1^−/− mice. Recipients were then weighed every week and euthanized when weight loss was >30%.

B16F1 cells = assay: B16F1 tumor growth in immunodeficient mice; format: in vivo, RAG1−/− mice; conditions: PTXF vs PBS
Description: 5×10^4 B16F1 or 5×10^5 CT-26 or BRAF^[…]^-/- cells diluted in sterile PBS1X were injected subcutaneously into the shaved flank of each mouse. For metastasis experiments, 2.5×10^4 B16F10 cells were injected intravenously in the tail vein. […] Anti-PD-1 (RMP1-14), anti-PD-L1 (10F.9G2) and anti-CD8 (YTS.169-4) mAbs were obtained from BioXCell. Rat IgG isotype control was from R&D Systems.

size or composition of lymphoid tissues (B16F1 melanoma cells [3]; B16F1-bearing mice, 50 mg/kg PTXF): No observable differences
Compound: CC(=O)CCCCn1c(=O)c2c(ncn2C)n(C)c1=O [PTXF, 1-(5-oxohexyl)-3,7-dimethylxanthine]
tumor size / tumor growth (growth curves) (B16F1 melanoma cells [1]): did not change the growth curves; also recorded: did not significantly reduce tumor size
tumor size / tumor growth (growth curves) (B16F1 melanoma cells [1]; listed as pentoxifylline): did not significantly reduce tumor size
tumor growth, anti-PD-L1 instead of anti-PD-1 (B16F1 melanoma cells [1]; PTXF and/or anti-PD-L1 mAb): did not affect tumor growth
inflammatory response (activated T-cell markers and cytokines) in total tumors (B16F1 melanoma cells [2]): dramatic enhancement of the inflammatory response
increase of Ccl22 mRNA (B16F1 melanoma cells [2]; minor and non-significant): 1.2 ×
adverse events (B16F1 melanoma cells [3]; B16F1-bearing mice, 50 mg/kg PTXF, 50 mg/kg): no apparent adverse events; also recorded: No adverse effects of treatment were observed
pace of tumor growth (B16F1 melanoma cells [3]; B16F1, daily injections of 50 mg/kg PTXF vs PBS): significant reduction in the pace of tumor growth
tumor growth (tumor volume, monitored daily) (B16F1 melanoma cells [3]; B16F1 s.c., PTXF 50 mg/kg or IT-603 10 mg/kg on days 0, 2, 3, 4, 6 and 8, vs control vehicle): significantly reduced growth of the tumors
levels of p65 (p65): unchanged
prevention of colitis by PTXF-treated Treg (Treg cells): completely failed to prevent colitis
tumor growth in immunodeficient background (B16F1 cells): no effect on tumor growth

Reference: patent US10954300B2, “Use of pentoxifylline with immune checkpoint-blockade therapies for the treatment of melanoma” (THE TRUSTEES OF COLUMBIA UNIVERSITY IN THE CITY OF NEW YORK, priority 2015, dated 2021)
